Assay results reported in a melting point compilation (Tetko et al.; mined from patent text by program, amines drawn as free bases though some values may be those of a salt).

SMILES	melting point [°C]
Cc1cc(-c2ccc(C(F)(F)F)c(C)c2)nc(-c2cccc(-c3ccc(S(N)(=O)=O)s3)c2)n1	242
COc1cc(COc2nn(-c3ccccc3)cc2CCC(=O)O)ccc1OCc1nc(-c2ccco2)oc1C	161 to 162
O=C(O)c1cc2c(cc1C(=O)O)C(c1ccccc1)(C(F)(F)F)c1cc(C(=O)O)c(C(=O)O)cc1O2	276
Cc1c(C)c2c(c(C)c1NC(=O)CC(C)(C)C)C(c1ccc(-c3ccccc3)cc1)CO2 (configuration not stated)	218 to 219
O=[N+]([O-])c1n[nH]c(-c2ccc(C(F)F)c(C(SC(c3cc(-c4nc([N+](=O)[O-])n[nH]4)ccc3C(F)F)C(F)(F)F)C(F)(F)F)c2)n1 (configuration not stated)	74 to 76
CCCCS(=O)(=O)C1(CCCCN2CCC(N3Cc4ccccc4C3=O)CC2)c2ccccc2-c2ccccc21	130 to 132
O=[N+]([O-])c1ccc(SCCc2c[nH]cn2)nc1	147 to 148
O=[N+]([O-])C(F)(CCc1nnc(C(F)(F)C(F)(F)F)o1)[N+](=O)[O-]	3 to 5
CC1(CNC(=O)C(F)(F)F)CN(c2cc3c(cc2F)c(=O)c(C(=O)O)cn3C2CC2)C1	265 to 272
O=C(O)C1=CCc2ccccc21	157
COc1cc(N)c([N+](=O)[O-])cc1I	189
COc1ccc2c(c1)CCN1C[C@H]3CCCN(S(C)(=O)=O)[C@H]3C[C@@H]21	165 to 166
COC(=O)C1(NC(=O)Cc2cc(-c3ccc(Cl)cc3)ccc2Cl)CCC(C)(C)CC1	128
CC1NC(=O)NN=C1c1ccc(N)c(Cl)c1 (configuration not stated)	229 to 231
COc1cc(Cl)ccc1CN1C(=O)C(C)(c2cc(C(=O)N3CCCCC3)ccc2Cl)c2cc(Cl)ccc21 (configuration not stated)	205
CC(C)(O)CCn1c2ccccc2c2cc(NC(=O)c3ccccc3Cl)ccc21	120 to 124
CCSc1cc(=O)c2c(O)cc(O)c([C@H]3CCN(C)C[C@H]3O)c2o1 (relative stereo)	104
CS(=O)(=O)c1ccc(-c2cccn2-c2ccc(OC(F)(F)F)cc2)cc1	150 to 152
Nc1cc(-c2ccccc2)c(=O)n2c1-c1sccc1CC2	180 to 182
Nc1nc(Cl)cc(Oc2ccc3c(c2)CCCCN3C(=O)Nc2cccc(C(F)(F)F)c2)n1	175
COc1ccc2c(OCCN3CCOCC3)c(-c3ccccc3)c(=O)oc2c1	95 to 96
NS(=O)(=O)c1ccc(-c2oc3c(Cl)ccc(O)c3c(=O)c2-c2ccc(F)cc2)cc1	251 to 252
C#CCOc1ccc2c(C)cc(=O)oc2c1C(=O)C=Cc1ccccc1	140 to 142
Cc1nn(C)c2c1N(C(=O)CN(C(C)C)C(C)C)c1ccccc1NC2=O	154 to 156
Fc1ccc(C2=CCC(N3CCN(Cc4ccc5ccccc5n4)CC3)CC2)cc1 (configuration not stated)	111 to 114

SMILES	melting point [°C]
CCCn1nc2c(N)nc3ccccc3c2c1CCCCS(=O)(=O)NC	166 to 169
Cc1cccc(N2CCCC2=O)c1CNc1cccn2c(C)c(C)nc12	138 to 141
CCc1nc2c(NC(=O)C(C)(C)C)nc3ccccc3c2n1CCCCNS(C)(=O)=O	220 to 221
O=C(Cc1ccccc1Nc1c(Cl)cccc1Cl)OCCl	89 to 91
[N-]=[N+]=NCC(=O)Nc1ccccc1	83
COc1ccc(C(=O)CNc2ccccc2)cc1	105 to 106
C=CCSC1(C(F)(F)F)CN(C2CC2)C(=O)Nc2ccc(Cl)cc21 (configuration not stated)	144 to 146
N#CCCCCc1csc(NC(=N)N)n1	104 to 105
CC(C)(C)OC(=O)NC[C@H]1CN(c2ccc3c(c2)CC(C(C)(C)C)N3C=O)C(=O)O1 (some centres not stated)	153 to 161
Cc1cc(S(=O)(=O)NC(C)C)c2c(C)ccc(C(C)C)cc1-2	128 to 130
N#Cc1ccc(C(=C2CCCCC2)c2nc[nH]n2)cc1	92 to 93
CCN(CC)CCn1c2ccccc2c(=NN=C2SCCN2C)c2ccccc21	123 to 125
O=S(=O)(O)CCNCCO	180 to 183
CC(C)c1ccc(OCCCCCCCCCCCCC(Cl)(Cl)C(=O)O)cc1	47 to 49
O=C1c2ccc(O)cc2C(=O)N1c1ccc(O)cc1	302 to 304
O=S1(=O)CCN2CCN[C@H](c3ccc(Oc4ccccc4)cc3)C2=N1	124 to 125
CN1C(=O)C2CN(Cc3ccncc3)CCN2c2ccccc21 (configuration not stated)	252 to 254
CNC(=S)N1CC(Oc2cccc(C(F)(F)F)c2)C1	79 to 86
CC(=O)c1ccc(OCc2cccc(N)c2)cc1O	153 to 154
CCN(CC)CCCOc1ccc(C(=O)c2c(-c3ccc(OC)cc3)oc3ccccc23)cc1	102 to 110
C/C(=C(\C#N)C(N)=S)N1CC[C@@H]2CCCC[C@H]2C1 (relative stereo)	173 to 175
O=[N+]([O-])c1cc2c(c(Cl)c1OCc1ccccc1)CCCC2	80 to 82
CCOc1ccc(C(OC2CCN(CCCCCC(=O)O)CC2)c2ccccc2)cc1 (configuration not stated)	110 to 112
COc1ccc(C(=O)Nc2ccccc2)cc1NCc1ccoc1	188 to 190
CCCNC(=S)n1nc(Oc2c(Cl)cc(C(F)(F)F)cc2Cl)cc1C	71 to 73

SMILES	melting point [°C]
O=C(c1cccs1)c1scc(Br)c1Br	105 to 109
O=C(O)c1ccc(OCC(O)c2cc3ccccc3o2)cc1 (configuration not stated)	153 to 155
OCc1c(-c2ccccc2)nn2c1-c1ccccc1CC2	185 to 187
C(=Cc1ccc(-c2nc(-c3ccc(C=Cc4ccccc4)cc3)n(-c3ccccc3)n2)cc1)c1ccccc1	218 to 220
O=P(O)(O)C(CCCc1ccc(-c2ccccc2)cc1)P(=O)(O)O	199 to 200
COC(=O)c1cc(C(C)=O)c(OC(C)=O)cc1NC(=O)C(F)(F)F	130 to 131
CCN1C(=O)C(CCN2CCN(c3ccccc3OC)CC2)Sc2ccccc21 (configuration not stated)	142 to 144
CCOC(=O)C(OCC)(OCC)C(=O)c1cccc2snnc12	123 to 125
CC(=O)OCc1cc2ccccc2[nH]1	112
OC(Cn1cncn1)(Cn1ncnc1S)c1ccc(F)cc1F (configuration not stated)	187
CCOC1=NS(=O)(=O)c2cccc([N+](=O)[O-])c21	190 to 191
CC(c1ccc2ncccc2c1)n1nnc2ccc(-c3cnn(CCO)c3)nc21 (configuration not stated)	188 to 191
CC(=O)OCC(=O)C1(O)C(C)CC2C3CCC4=CC(=O)CCC4(C)C3C(=O)CC21C (configuration not stated)	214 to 219
COC(=O)CCn1cc(Cc2cccnc2)c2cc([N+](=O)[O-])ccc21	101 to 102
COC(=O)c1cc(C=O)ccc1C	60 to 61
CCn1c2ccc(C(=O)CCCCl)cc2c2cc(C(=O)CCCCl)ccc21	106 to 108
CCOC(=O)C(CCCCOc1ccccc1)C(=O)O (configuration not stated)	69 to 72
CC[C@H](C)Nc1cc(C(=O)OC)cc(NS(C)(=O)=O)n1	119 to 123
COCCOc1nc(NC(C)=O)nc2ccc(Cl)nc12	135
CCOC(=O)n1c(SC(F)(F)F)cc(-c2ccc(F)cc2)c1-c1ccc(F)cc1	54 to 54.5
Cc1cccc(C)c1NC(=O)CN1CCN(c2ncnc3sccc23)C(C)C1 (configuration not stated)	184 to 185
CC(CCCC(=O)CCCC(C)(C(=O)O)c1ccccc1)(C(=O)O)c1ccccc1 (configuration not stated)	44 to 46
COc1ccc(C2(C#Cc3cccc(-c4nc(C)no4)c3)CCC(=O)CC2)cc1OC1CCCC1	88 to 91
COC(=O)c1cccc(CC2COc3ccc(OCc4ccc5ccccc5n4)cc3C2O)c1 (configuration not stated)	153 to 154
CC12CCC3=C4CCC(=O)C=C4CCC3C1C=CC2=O (configuration not stated)	182 to 183

SMILES	melting point [°C]
CC(C)NC(=O)N1CCc2[nH]cnc2C1C1CCCCC1 (configuration not stated)	254
O=C(O)CNC(=O)c1cc(Br)nc(Br)c1	151 to 152
CC(C)(C)c1cccc(S(=O)(=O)n2c(Cc3ccc(C(=O)NS(=O)(=O)c4ccccc4)cc3)cc3cc(C(F)(F)F)ccc32)c1	99
O=C(Nc1ccncc1)c1n[nH]c2ccc(-c3cncc4ccccc34)cc12	> 250
CCOC(=O)C1=C(C(OCC)OCC)NC(C)=C(C(=O)OCc2ccccc2)C1c1ccccc1[N+](=O)[O-] (configuration not stated)	103 to 104
O=C(O)[C@@H]1CCCN1C(=O)c1ccccc1	152 to 154
O=C1CCCc2nc3cc(Cl)ccc3c(NCc3ccc(F)cc3)c21	156 to 158
O=C1CC2C(OCc3ccc(Br)cc3)CC(O1)C2N1CCCCC1 (single isomer, unassigned; (-))	85 to 88
CC(C)(C)CC(C)(C)c1cc(-c2cc(C(C)(C)CC(C)(C)C)cc(-n3nc4ccccc4n3)c2O)c(O)c(-n2nc3ccccc3n2)c1	209 to 211
COc1ccc(Cn2cnc3c(-c4ccco4)nc(-c4ccccc4)nc32)cc1	140 to 142
Cc1cnc(Cl)c2c3cc(O)ccc3n(C)c12	> 260
COc1cc(I)c(CC(C)N2CCCC2)cc1OC (configuration not stated)	87 to 88
CCOc1ccc(Oc2c([N+](=O)[O-])cc(C(=O)OC)cc2[N+](=O)[O-])cc1	101 to 103
CCN(CC)C(=O)c1cccc(I)c1C(=O)O	120 to 122
Nn1cc(F)c(=O)[nH]c1=O	196 to 199
C=CCN(CC=C)c1ccc(C(C)N(O)C(N)=O)cc1 (configuration not stated)	112 to 114
CC(C)(C)c1cc2c(c(C(C)(C)C)c1)O[Si](C)(C)Oc1c-2cc(C(C)(C)C)cc1C(C)(C)C	170 to 176
Cc1ccc(S(=O)(=O)c2ccccc2S(=O)(=O)N=CN(C)C)cc1	178
CN=C(NS(=O)(=O)N1CCC(F)(F)CC1)N1CC(c2ccccc2)C(c2ccc(Cl)cc2)=N1 (configuration not stated)	158 to 160
CNc1nc(OC)c(C(=O)OC)cc1Br	136 to 138
CC1(CN2CCN(C(=O)OCc3ccc(C(=O)c4ccccc4)cc3)CC2)Cn2cc([N+](=O)[O-])nc2O1 (configuration not stated)	105 to 107
CNC(=O)N1CC(Oc2ccc(Br)cc2)C1	135 to 137
